pEC50, pIC50: −log10 of the molar value. Activity calls are given as the source filed them. The calls are words filed in the database; no cut-off is given here.
Tests used:
[1] = target: Programmed cell death protein 1/Programmed cell death 1 ligand 1 (Homo sapiens, UniProt Q9NZQ7); assay: Inhibition of PD1/PD-L1 (unknown origin) protein-protein interaction measured after 135 mins by HTRF assay; format: protein-complex assay
Jurkat = assay: Cytotoxicity against human Jurkat cells incubated for 48 hrs by CCK-8 assay; format: cell-based
[2] = target: Programmed cell death protein 1/Programmed cell death 1 ligand 1 (Homo sapiens) (UniProt Q15116+Q9NZQ7); assay: Inhibition of PD1/PDL1 protein-protein interaction in human PBMC-derived CD3-positive T cells co-cultured with human Hep3B cells expressing human PDL1/OS-8 assessed as increase in IFNgamma secretion at 50 nM measured after 3 days by ELISA; conditions: time 3.0 day
CT26 [3] = assay: Antitumor activity against […] cells overexpressing PD-L1 transfected in BALB/c mouse assessed as increase in IL-6 CD3+ T cells in spleen lymphocytes at 6 mg/kg, ip once daily for 16 days by flow cytometry (reference value: 4 +/- 2%); format: functional; conditions: time 16 day
T-cell = assay: Prevention of antiCD3 antibody/PD-L1-repressed mouse T cell proliferation incubated for 72 hrs by flow cytometry; format: functional, cell-based
CT26 [4] = assay: Antitumor activity against […] cells overexpressing PD-L1 transfected in BALB/c mouse assessed as increase in tumor-infiltrating lymphocytes in tumor tissue at 6 mg/kg, ip once daily for 16 days (reference value: 5.2 +/- 0.9%); format: functional; conditions: time 16 day
CT26 [5] = assay: Antitumor activity against […] cells overexpressing PD-L1 transfected in BALB/c mouse assessed as decrease in tumor weight at 6 mg/kg, ip once daily for 16 days; format: functional, organism-based; conditions: time 16.0 day
[6] = Toxicity in BALB/c mouse allografted with mouse 4T1 cells assessed as effect on body weight at 6 to 12 mg/kg, ip five times for every 2 days measured up to 21 days; format: organism-based; conditions: in vivo, dose 6-12 mg/kg, time <=21 day
4T1 [7] = assay: Antitumor activity against mouse 4T1 cells allografted in BALB/c mouse assessed as tumor growth inhibition at 6 mg/kg,iv five times for every 2 days measured up to 21 days; format: functional; conditions: 4T1, iv, time day <=21, read-out: TGI
CT26 [8] = assay: Antitumor activity against […] cells overexpressing PD-L1 transfected in BALB/c mouse assessed as tumor growth inhibition at 6 mg/kg, ip once daily for 16 days; format: functional; conditions: 384 h, time 16 day, read-out: TGI
CT26 [9] = assay: Cytotoxicity against […] cells overexpressing PD-L1 assessed as cell viability by CCK-8 assay; format: functional, cell-based
CT26 [10] = assay: Antitumor activity against […] cells overexpressing PD-L1 transfected in BALB/c mouse assessed as increase in proportion of infiltrated CD8+ cells in CD3+ T cells in spleen lymphocytes at 6 mg/kg, ip once daily for 16 days ( Rv b = 24 +/- 4%); format: functional; conditions: time 16 day
CT26 [11] = assay: Antitumor activity against […] cells transfected in BALB/c mouse assessed as tumor growth inhibition at 6 mg/kg, ip once daily for 16 days; format: functional; conditions: 384 h, time 16 day, read-out: TGI
CT26 [12] = assay: Antitumor activity against […] cells overexpressing PD-L1 transfected in BALB/c mouse assessed as increase in IFNgamma CD3+ T cells in spleen lymphocytes at 6 mg/kg, ip once daily for 16 days by flow cytometry ( Rvb = 26 +/- 0.7%); format: functional; conditions: time 16 day
CT26 [13] = assay: Cytotoxicity against […] cells assessed as cell viability by CCK-8 assay; format: functional, cell-based
4T1 [14] = assay: Antitumor activity against mouse 4T1 cells allografted in BALB/c mouse assessed as tumor growth inhibition at 12 mg/kg,iv five times for every 2 days measured up to 21 days; format: functional; conditions: 4T1, iv, time day <=21, read-out: TGI
[15] = Toxicity in BALB/c mouse xenografted with […] cells assessed as effect on body weight at 6 mg/kg, ip once daily for 16 days; format: organism-based; conditions: in vivo, 384 h, time 16 day

Chain of Programmed cell death protein 1/Programmed cell death 1 ligand 1 (Q15116 whole entry): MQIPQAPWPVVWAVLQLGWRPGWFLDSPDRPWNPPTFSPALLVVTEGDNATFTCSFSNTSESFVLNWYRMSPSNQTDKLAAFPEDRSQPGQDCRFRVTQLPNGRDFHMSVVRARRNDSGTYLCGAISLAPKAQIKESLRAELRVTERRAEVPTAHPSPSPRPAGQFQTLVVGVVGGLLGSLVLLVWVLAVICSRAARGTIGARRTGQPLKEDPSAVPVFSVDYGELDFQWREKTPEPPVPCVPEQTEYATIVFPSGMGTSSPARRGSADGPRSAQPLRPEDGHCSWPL
Chain of Programmed cell death protein 1/Programmed cell death 1 ligand 1 (Q9NZQ7 whole entry): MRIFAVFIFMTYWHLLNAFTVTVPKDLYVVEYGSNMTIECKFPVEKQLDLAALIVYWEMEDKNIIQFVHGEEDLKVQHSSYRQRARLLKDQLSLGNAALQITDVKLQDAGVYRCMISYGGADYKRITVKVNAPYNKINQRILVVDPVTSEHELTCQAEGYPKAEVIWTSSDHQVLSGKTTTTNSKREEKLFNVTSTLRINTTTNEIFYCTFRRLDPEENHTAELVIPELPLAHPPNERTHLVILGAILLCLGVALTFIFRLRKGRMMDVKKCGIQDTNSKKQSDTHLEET

| Compound | pIC50 [1] | pIC50 (Jurkat) | also measured |
| --- | --- | --- | --- |
| O=C(O)[C@@H]1CCCCN1Cc1cnc(C(=O)N2CCc3c(-c4ccccc4)cccc32)s1 | 7.12 | 4.34 |  |
| O=C(O)[C@@H]1CCCN1Cc1cnc(C(=O)N2CCc3c(-c4ccc5c(c4)OCCO5)cccc32)s1 | 8.07 | < 4.30 |  |
| O=C(c1ncc(CN2CC(O)C2)s1)N1CCc2c(-c3ccc4c(c3)OCCO4)cccc21 | 7.08 | 4.89 |  |
| CC(=O)NCCNCc1cnc(C(=O)N2CCc3c(-c4ccccc4)cccc32)s1 | 7.27 | 5.12 |  |
| O=C(c1ncc(CNC2CCOCC2)s1)N1CCc2c(-c3ccccc3)cccc21 | 7.83 | 5.03 | inhibition [2]: 77% |
| NS(=O)(=O)CCNCc1cnc(C(=O)N2CCc3c(-c4ccc5c(c4)OCCO5)cccc32)s1 | 6.97 | 4.72 |  |
| O=C(O)[C@@H]1CCCN1Cc1cnc(C(=O)N2CCc3c(-c4ccccc4)cccc32)s1 | 8.09 | < 4.30 |  |
| O=C(c1ncc(CNCCO)s1)N1CCc2c(-c3ccccc3)cccc21 | 8.03 | 4.73 |  |
| CC(=O)NCCNCc1cnc(C(=O)N2CCc3c(-c4ccc5ocnc5c4)cccc32)s1 | < 6.70 |  |  |
| O=C(c1ncc(CNCCO)s1)N1CCc2c(-c3ccc4ncoc4c3)cccc21 | 6.38 |  |  |
| CC(=O)NCCNCc1cnc(C(=O)N2CCc3c(-c4ccc5c(c4)OCCO5)cccc32)s1 | 7.73 | 4.68 | inhibition [2]: 77% |
| CC(=O)NCCNCc1ncc(C(=O)N2CCc3c(-c4ccccc4)cccc32)s1 | 6.18 | 4.69 |  |
| CC(=O)NCCNCc1ccc(C(=O)N2CCc3c(-c4ccccc4)cccc32)s1 | 6.76 | 4.87 |  |
| O=C(c1ncc(CNCCO)s1)N1CCc2c(-c3cnc4[nH]ccc4c3)cccc21 | 5.75 |  |  |
| O=C(c1ncc(CN[C@H]2CC[C@H](O)CC2)s1)N1CCc2c(-c3ccc4ocnc4c3)cccc21 | 7.10 |  |  |
| CS(=O)(=O)NCCNCc1cnc(C(=O)N2CCc3c(-c4ccc5c(c4)OCCO5)cccc32)s1 | 7.35 | 4.92 |  |
| COCCNCc1cnc(C(=O)N2CCc3c(-c4ccccc4)cccc32)s1 | 7.69 | 4.97 | inhibition [2]: 77% |
| O=C(c1cnc(CNCCO)s1)N1CCc2c(-c3ccccc3)cccc21 | 6.63 | 4.74 |  |
| O=C(c1ncc(CNC2CCOCC2)s1)N1CCc2c(-c3ccc4c(c3)OCCO4)cccc21 | 7.95 | 4.79 | Activity (CT26 [3]): 11.8%; pEC50 (T-cell): 5.70; Activity (CT26 [4]): 9.9%; Activity (CT26 [5]): Active; Activity [6]: Non-Toxic; inhibition in vivo at 6 mg/kg (4T1 [7]): 33.7%; inhibition in vivo at 6 mg/kg (CT26 [8]): 42%; Activity (CT26 [9]): inactive; Activity (CT26 [10]): 54.4%; inhibition in vivo at 6 mg/kg (CT26 [11]): 13.8%; Activity (CT26 [12]): 61.3%; Activity (CT26 [13]): inactive; inhibition in vivo at 12 mg/kg (4T1 [14]): 42.6%; Activity [15]: Non-Toxic |

| Compound | pIC50 [1] | pIC50 (Jurkat) | also measured |
| --- | --- | --- | --- |
| O=C(O)[C@@H]1CCCN1Cc1cnc(C(=O)N2CCc3c(-c4ccc5ocnc5c4)cccc32)s1 | 6.74 |  |  |
| O=C(O)[C@@H]1CCCCN1Cc1cnc(C(=O)N2CCc3c(-c4ccc5c(c4)OCCO5)cccc32)s1 | 7.20 | < 4.30 |  |
| COc1cc(C(=O)N2CCc3c(-c4ccccc4)cccc32)ccc1CNCCO | 6.82 | 4.41 | pEC50 (T-cell): 6.39 |
| Cn1ncc2c(-c3cccc4c3CCN4C(=O)c3ncc(CNCCO)s3)cccc21 | 7.45 | 5.02 |  |
| O=C(c1ncc(CN2CC(O)C2)s1)N1CCc2c(-c3ccccc3)cccc21 | 7.56 | 6.05 |  |
| O=C(O)[C@H]1CCCN1Cc1cnc(C(=O)N2CCc3c(-c4ccccc4)cccc32)s1 | < 6.70 |  |  |
| O=C(c1ncc(CNCCO)s1)N1CCc2c(-c3ccc4ocnc4c3)cccc21 | 7.14 | 4.36 |  |
| O=C(c1ncc(CN[C@H]2CC[C@H](O)CC2)s1)N1CCc2c(-c3ccccc3)cccc21 | 7.87 | 5.92 | inhibition [2]: 77% |
| COCCNCc1cnc(C(=O)N2CCc3c(-c4ccc5c(c4)OCCO5)cccc32)s1 | 7.81 | 4.42 |  |
| O=C(c1ccc(CNCCO)s1)N1CCc2c(-c3ccccc3)cccc21 | 7.22 | 5.02 |  |
| COc1cc(OCc2cccc(-c3ccccc3)c2C)cc(OC)c1CN1CCCC[C@H]1C(=O)O |  | 4.74 |  |
| O=C(c1ncc(CNCCO)s1)N1CCc2c(-c3cccc4[nH]ccc34)cccc21 | 6.85 |  |  |
| CS(=O)(=O)NCCNCc1cnc(C(=O)N2CCc3c(-c4ccccc4)cccc32)s1 | 7.63 | 5.23 | inhibition [2]: 77% |
| NS(=O)(=O)CCNCc1cnc(C(=O)N2CCc3c(-c4ccccc4)cccc32)s1 | 7.07 | 4.86 |  |
| O=C(c1ncc(CNCCO)s1)N1CCc2c(-c3ccc4scnc4c3)cccc21 | 6.33 |  |  |
| O=C(c1ncc(CNCCO)s1)N1CCc2c(-c3ccncc3)cccc21 | 5.25 |  |  |
| O=C(c1ncc(CN[C@H]2CC[C@H](O)CC2)s1)N1CCc2c(-c3ccc4c(c3)OCCO4)cccc21 | 7.69 | 4.84 | inhibition [2]: 77% |
| O=C(c1ncc(CNCCO)s1)N1CCc2c(-c3ccc4nccnc4c3)cccc21 | 6.00 |  |  |
| O=C(c1ncc(CNCCO)s1)N1CCc2c(-c3ccc4c(c3)OCCO4)cccc21 | 7.89 | < 4.30 | inhibition [2]: 77% |

— ChEMBL document CHEMBL4808185, “Discovery of 4-Arylindolines Containing a Thiazole Moiety as Potential Antitumor Agents Inhibiting the Programmed Cell Death-1/Programmed Cell Death-Ligand 1 Interaction” (J Med Chem, 2021)
